In article PMC6046546, “Gossypol Inhibits Non-small Cell Lung Cancer Cells Proliferation by Targeting EGFR^L858R/T790M” (Frontiers in Pharmacology, 2018):

Columns and labels:
EGFR^L858R/T790M = biological target: T1, EGFR^L858R/T790M (Homo sapiens, UniProt P00533, L858R/T790M); experiment: ELISA kinase activity assay, recombinant kinase, poly(Glu,Tyr) […] substrate, […] ATP; type: biochemical
T1 construct: kinase domain

EGFR^WT = EGFR^WT (Homo sapiens, UniProt P00533); experiment: ELISA kinase activity assay, poly(Glu,Tyr) […] substrate, […] ATP; type: biochemical
EGFR^WT, sequence (P00533 25-1210): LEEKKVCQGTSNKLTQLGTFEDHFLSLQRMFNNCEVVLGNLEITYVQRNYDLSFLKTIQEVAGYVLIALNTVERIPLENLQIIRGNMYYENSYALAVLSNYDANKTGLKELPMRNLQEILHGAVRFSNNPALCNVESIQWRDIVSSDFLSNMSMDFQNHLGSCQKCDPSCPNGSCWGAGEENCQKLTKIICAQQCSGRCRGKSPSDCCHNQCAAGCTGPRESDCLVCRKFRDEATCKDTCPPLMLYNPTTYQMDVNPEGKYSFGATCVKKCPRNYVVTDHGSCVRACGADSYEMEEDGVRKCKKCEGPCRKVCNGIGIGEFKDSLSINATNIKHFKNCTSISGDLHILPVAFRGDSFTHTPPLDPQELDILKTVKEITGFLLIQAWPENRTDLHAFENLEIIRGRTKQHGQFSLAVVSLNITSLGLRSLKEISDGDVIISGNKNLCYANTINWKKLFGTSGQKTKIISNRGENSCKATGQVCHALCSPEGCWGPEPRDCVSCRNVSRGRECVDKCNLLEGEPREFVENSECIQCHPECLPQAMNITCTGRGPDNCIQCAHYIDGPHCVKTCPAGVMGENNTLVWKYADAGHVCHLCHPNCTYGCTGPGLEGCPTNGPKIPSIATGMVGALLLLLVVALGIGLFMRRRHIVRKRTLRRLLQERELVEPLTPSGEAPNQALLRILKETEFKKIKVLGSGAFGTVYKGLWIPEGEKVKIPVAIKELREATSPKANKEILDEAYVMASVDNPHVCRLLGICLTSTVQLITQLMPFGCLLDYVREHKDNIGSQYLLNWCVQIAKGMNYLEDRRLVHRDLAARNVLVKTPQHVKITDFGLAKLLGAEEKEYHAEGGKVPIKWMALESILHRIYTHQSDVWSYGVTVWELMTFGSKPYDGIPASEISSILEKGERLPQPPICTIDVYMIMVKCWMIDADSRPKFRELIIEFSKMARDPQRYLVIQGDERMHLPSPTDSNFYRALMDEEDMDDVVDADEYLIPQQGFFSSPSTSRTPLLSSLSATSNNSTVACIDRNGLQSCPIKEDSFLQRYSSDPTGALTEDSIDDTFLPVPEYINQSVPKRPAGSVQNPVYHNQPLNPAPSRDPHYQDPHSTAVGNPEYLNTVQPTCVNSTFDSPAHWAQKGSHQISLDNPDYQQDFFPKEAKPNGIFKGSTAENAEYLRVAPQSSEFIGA

T1 sequence (P00533 696-1022 T790M/L858R limits assumed): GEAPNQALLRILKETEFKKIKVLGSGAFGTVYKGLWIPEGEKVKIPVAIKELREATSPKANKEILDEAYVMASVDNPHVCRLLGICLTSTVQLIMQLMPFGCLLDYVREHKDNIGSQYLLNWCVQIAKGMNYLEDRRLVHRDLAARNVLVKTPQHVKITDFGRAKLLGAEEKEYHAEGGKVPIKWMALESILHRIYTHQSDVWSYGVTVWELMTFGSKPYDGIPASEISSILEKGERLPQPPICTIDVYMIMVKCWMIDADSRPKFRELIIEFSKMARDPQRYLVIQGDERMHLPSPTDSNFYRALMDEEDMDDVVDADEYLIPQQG

SMILES: Cc1cc2c(C(C)C)c(O)c(O)c(C=O)c2c(O)c1-c1c(C)cc2c(C(C)C)c(O)c(O)c(C=O)c2c1O [gossypol]
- EC50 (EGFR^L858R/T790M): 0.15 ± 0.0307 µM
- EC50 (EGFR^WT): 0.253 ± 0.0269 µM
